The results in this text go back to publication PMC6982798, “Evaluation of Isoflavones as Bone Resorption Inhibitors upon Interactions with Receptor Activator of Nuclear Factor-κB Ligand (RANKL)” (Molecules, 2020).

The target of this experiment is T1, sRANKL recombinant (RANKL) (Homo sapiens, UniProt O14788).
T1 construct: gene TNFSF11; human is named only for the docking model (3URF), whose residue numbers (K181, Y235, Q237, Y241) fit human RANKL
T1 sequence (O14788 140-317 limits assumed): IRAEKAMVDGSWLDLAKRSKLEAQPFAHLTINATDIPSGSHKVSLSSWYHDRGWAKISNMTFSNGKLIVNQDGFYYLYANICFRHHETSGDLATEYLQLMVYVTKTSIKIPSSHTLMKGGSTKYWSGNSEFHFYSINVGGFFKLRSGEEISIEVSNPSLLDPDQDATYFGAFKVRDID
The experiment in a line: isothermal titration calorimetry (ITC), single binding mode fit. The conditions noted are these: read-out: KA × 10^3 (L/mol) (converted). From the text:
isothermal titration calorimetry (ITC), single binding mode fit on sRANKL recombinant (RANKL)
On to `COc1ccc(-c2coc3cc(O)cc(O)c3c2=O)cc1` [Biochanin A], for which the Kd is 833 µM.
For the compound `O=c1oc2cc(O)ccc2c2oc3cc(O)ccc3c12` [Coumestrol], the Kd is 1430 µM.
`O=c1c(-c2ccc(O)cc2)coc2cc(O)ccc12` [Daidzein]: the Kd was 62.7 µM.
As for `COc1ccc(-c2coc3cc(O)ccc3c2=O)cc1` [Formononetin], the Kd is 318 µM.
Consider `O=c1c(-c2ccc(O)cc2)coc2cc(O)cc(O)c12` [Genistein], for which the Kd is 317 µM.
